Results published in US10639289B2, “Application of neuraminidase and inhibitors thereof in myocardial ischemia and myocardial infarction” (CHINA PHARMACEUTICAL UNIVERSITY, priority 2016, dated 2020).

Key:
[1] = test system: isoproterenol-induced acute myocardial ischemia; experiment: Electrocardiogram in the acute myocardial ischemia model in rats with ISO; format: in vivo, SD rats; settings: for Impact on the ECG (myocardial damage): all dose groups, in words
Experimental: (§1) 1. The acute myocardial ischemia model in rats with ISO: SD rats are selected and divided according to body weight into six groups: blank control group, model group, ZA high dose group (0.5 mg/kg iv) and ZA low dose group (0.2 mg/kg iv), OS high dose group (10 mg/kg po), OS low dose group (5 mg/kg po), with 10 rats in each group. The groups with drug administration are administered the drugs continuously for 3 days, and on the second day of drug administration, and 30 minutes after the drug administration, they are performed subcutaneous injection of ISO at a dose of 60 mg/kg; on the third day of drug administration, and 30 minutes after the drug administration, they are also performed subcutaneous injection of ISO at a dose of 60 mg/kg; on the fourth day their tissue samples such as blood and heart are collected on the fourth day.
3.1 Record the Electrocardiogram
Record the electrocardiogram of each group using standard II lead
(§2) 1. The acute myocardial ischemia model in rats with ISO: SD rats are selected and divided according to body weight into five groups: blank control group, model group, coptisine high dose group (100 mg/kg p.o.) and coptisine medium dose group 25 mg/kg p.o.), coptisine low dose group (10 mg/kg p.o.), with 10 rats in each group. The groups with drug administration are administered the drugs continuously for 3 days, and on the second day of drug administration, and 30 minutes after the drug administration, they are performed subcutaneous injection of ISO at a dose of 60 mg/kg; on the third day of drug administration, and 30 minutes after the drug administration, they are also performed subcutaneous injection of ISO at a dose of 60 mg/kg; on the fourth day their tissue samples such as blood and heart are collected on the fourth day.
3.1 Record ECG: Same as Embodiment 1.

[2] = test system: isoproterenol-induced acute myocardial ischemia; experiment: Cardiac pathology (HE sections) in the acute myocardial ischemia model in rats with ISO; format: in vivo, SD rats; settings: for Effect on myocardial cell morphology (cardiac pathological sections): all dose groups, in words
Experimental: as §1
3.2 Observe the Cardiac Pathology
Fix the myocardial tissue of the apical site of the hearts in 10% formaldehyde solution, obtain material conventionally, perform dehydration, embedding in paraffin, and make it into sheets (4 μm thick), stain them with HE, and observe them under an optical microscope.
as §2
3.2 Observing the pathological section of the heart: same as in Embodiment 1.

[3] = test system: myocardial neuraminidase; experiment: Myocardial neuraminidase level by ELISA after isoproterenol modeling; format: in vivo, SD rats; settings: ISO model rats; for Effect on the expression level of myocardial neuraminidase: ELISA, in words; for Neuraminidase concentration (myocardial neuraminidase expression level): 3 days
Experimental: as §1, with “day. […]” for “day.”
3.3 Determination of Myocardial Neuraminidase Level
The level of myocardial neuraminidase in the rat is detected by […], and the detection kit is a neuraminidase detection kit, which is measured according to the instruction manual of the test kit.
as §2
3.3 Method for determination of myocardial neuraminidase level: same as in Embodiment 1.

[4] = test system: serum CK-MB and D-LDH; experiment: Serum myocardial damage indicators CK-MB and D-LDH after isoproterenol modeling; format: in vivo, SD rats; parameters: Serum CK-MB concentration: unit not given here; settings: ISO model rats; for Serum CK-MB concentration / Serum D-LDH concentration: 3 days
Experimental: as §1
3.4 the Detection Method for Serum Myocardial Damage Indicator CK-MB and D-LDH
Measure CK-MB and D-LDH according to the CK-MB detection kit (Roche) and D-LDH detection kit (Invitrogen) operating instructions, respectively.
as §2
3.4 Detection method for serum myocardial damage index CK-MB and D-LDH: same as in Embodiment 1.

[5] = test system: left anterior descending coronary artery ligation model; experiment: Acute myocardial ischemia model in rats with left anterior descending coronary artery ligation; format: in vivo, SD rats; settings: in words
Experimental: 2. The acute myocardial ischemia model in rats with left anterior descending coronary artery ligation: SD rats are selected and divided into 6 groups according to body weight: blank control group, model group, ZA high dose group (0.5 mg/kg iv). ZA low dose group, (0.2 mg/kg iv), OS high-dose group (10 mg/kg po) and OS low-dose group (5 mg/kg po), with 10 rats in each group. The groups with drug administration are pre-administered drugs 24 h and 12 h in advance before the rats are anesthetized with 3% chloral hydrate at 10 ml/kg, laid flat on their backs and fixed on the rat plate. Then cut them open at between left 4th and 5th ribs to open the pericardium, expose the heart, gently press the thorax to extrude the heart, find the left anterior descending coronary artery in the pulmonary artery cone and left atrium, and immediately bind the root of the left anterior descending coronary artery (pulmonary artery cone and left atrial appendage) with suture 0; push the heart back to the chest, and squeeze out the blood and gas in the chest cavity, close the chest cavity quickly, suture the skin, and the chest opening time is no more than 30 s. […]
The level of myocardial neuraminidase in the rat is detected by […], and the detection kit is a neuraminidase detection kit, which is measured according to the instruction manual of the test kit. […]

[6] = test system: neuraminidase; experiment: Inhibitory rate on neuraminidase (neuraminidase assay kit, fluorescence); format: biochemical
Experimental: 3.5 Determination of the inhibitory rate of coptisine on neuraminidase
Neuraminidase activity is determined using a neuraminidase assay kit. Accurately weigh standard coptisine, and prepare 200 μM (high dose group), 100 μM (medium dose group), and 50 μM (low dose group) solution in that order. To prepare a standard curve, add 70 μl of neuraminidase assay buffer to each well in a 96-well fluorescent plate, and add 0, 1, 2, 5, 7.5 and 10 μl of neuraminidase to each well, respectively. Then add […] of Milli-Q water per well so the total volume of each well is 90 μl. To test the sample, add 70 μl of neuraminidase detection buffer to each well of a 96-well fluorescent plate, then add 10 μl of neuraminidase and 10 μl of coptisine solution in different concentrations per well. Add 0-10 μl of Milli-Q water per well so the total volume of each well is 90 After shaking for about 1 minute, incubate at 37° C. for 2 minutes so the inhibitor fully interacts with neuraminidase; then add 10 μl of neuraminidase fluorescein substrate per well, mix by shaking, incubate at 37° C. for 30 minutes and then perform fluorescence measurement at excitation wavelength 322 nm and emission wavelength of 450 nm.

[7] = oseltamivir phosphate high dose group, 10 mg/kg po
[8] = oseltamivir phosphate low dose group, 5 mg/kg po
[9] = zanamivir high dose group, 0.5 mg/kg iv
[10] = zanamivir low dose group, 0.2 mg/kg iv
[11] = high dose coptisine group, 100 mg/kg p.o.
[12] = low dose coptisine group, 10 mg/kg p.o.
[13] = medium dose coptisine group, 25 mg/kg p.o.

CCOC(=O)C1=C[C@@H](OC(CC)CC)[C@H](NC(C)=O)[C@@H](N)C1 [Oseltamivir phosphate, oseltamivir phosphate]
Impact on the ECG (myocardial damage) [1]: effectively improve myocardial damage in a dose-dependent manner | Effect on myocardial cell morphology (cardiac pathological sections) [2]: effective in improving myocardial damage in a dose-dependent manner | Effect on the expression level of myocardial neuraminidase [3]: effective in inhibiting the increase in neuraminidase expression induced by myocardial ischemia in a dose-dependent manner | Neuraminidase concentration (myocardial neuraminidase expression level) [3, 7]: 16.7202 U/μL | Neuraminidase concentration (myocardial neuraminidase expression level) [3, 8]: 21.547 U/μL | Serum CK-MB concentration [4, 7]: 2846.67 | Serum D-LDH concentration [4, 7]: 7.208 mU/ml | Serum CK-MB concentration [4, 8]: 2964.44 | Serum D-LDH concentration [4, 8]: 7.793 mU/ml | Electrocardiogram and cardiac pathology [5]: significantly improve electrocardiogram and cardiac pathology in rats

CC(=O)N[C@H]1[C@H]([C@H](O)[C@H](O)CO)OC(C(=O)O)=C[C@@H]1N=C(N)N [Zanamivir, zanamivir]
Impact on the ECG (myocardial damage) [1]: effectively improve myocardial damage in a dose-dependent manner | Effect on myocardial cell morphology (cardiac pathological sections) [2]: effective in improving myocardial damage in a dose-dependent manner | Effect on the expression level of myocardial neuraminidase [3]: effective in inhibiting the increase in neuraminidase expression induced by myocardial ischemia in a dose-dependent manner | Neuraminidase concentration (myocardial neuraminidase expression level) [3, 9]: 16.9244 U/μL | Neuraminidase concentration (myocardial neuraminidase expression level) [3, 10]: 21.8341 U/μL | Serum CK-MB concentration [4, 9]: 3544.44 | Serum D-LDH concentration [4, 9]: 8.383 mU/ml | Serum CK-MB concentration [4, 10]: 3713.33 | Serum D-LDH concentration [4, 10]: 8.804 mU/ml | Electrocardiogram and cardiac pathology [5]: significantly improve electrocardiogram and cardiac pathology in rats

c1c2c(cc3c1OCO3)-c1cc3ccc4c(c3c[n+]1CC2)OCO4 [coptisine]
Impact on the ECG (myocardial damage) [1]: effectively improve myocardial damage in a dose-dependent manner | Electrocardiogram compared with blank control group [1, 11]: basically consistent with the blank control group | Effect on myocardial cell morphology (cardiac pathological sections) [2]: effectively improve myocardial damage in a dose-dependent manner | Inflammatory cell infiltration [2, 11]: no inflammatory cell infiltration | Myocardial cell morphology and intercellular fissure compared with blank control group [2, 11]: basically consistent with the blank control group | Effect on the expression level of myocardial neuraminidase [3]: effectively inhibit the increase of neuraminidase expression induced by myocardial ischemia in a dose-dependent manner | Reduction of myocardial neuraminidase expression compared with the model group [3, 11]: about 40% | Reduction of myocardial neuraminidase expression compared with the model group [3, 12]: about 21% | Reduction of myocardial neuraminidase expression compared with the model group [3, 13]: about 29% | Reduction of serum CK-MB and LDH levels compared with the model group [4, 11]: about 40% | Reduction of serum CK-MB and LDH levels compared with the model group [4, 12]: about 20% | Reduction of serum CK-MB and LDH levels compared with the model group [4, 13]: about 30% | Neuraminidase inhibition, assessment in words ([6]; 50-200 μM): potent neuraminidase inhibitor | Inhibitory rate on neuraminidase ([6]; coptisine concentration 50 μM): 5.64% | Inhibitory rate on neuraminidase ([6]; coptisine concentration 100 μM): 28.69% | Inhibitory rate on neuraminidase ([6]; coptisine concentration 200 μM): 56.25%
